Reference: patent US7470680B2, “Constrained compounds as CGRP-receptor antagonists” (Bristol-Myers Squibb Company, priority 2006, dated 2008)
pIC50: −log10 of the molar value.

Columns and labels:
CGRP receptor [1] = molecular target: T1, CGRP receptor (Homo sapiens, UniProt O60894+Q16602); assay: CGRP radioligand binding assay ([125I]-CGRP displacement, SK-N-MC homogenate); parameters: endogenous in cells; host or cells: SK-N-MC cells (homogenate/membrane pellet); details: displacement of [125I]-CGRP, SK-N-MC membranes
T1 sequence (Q16602 23-461): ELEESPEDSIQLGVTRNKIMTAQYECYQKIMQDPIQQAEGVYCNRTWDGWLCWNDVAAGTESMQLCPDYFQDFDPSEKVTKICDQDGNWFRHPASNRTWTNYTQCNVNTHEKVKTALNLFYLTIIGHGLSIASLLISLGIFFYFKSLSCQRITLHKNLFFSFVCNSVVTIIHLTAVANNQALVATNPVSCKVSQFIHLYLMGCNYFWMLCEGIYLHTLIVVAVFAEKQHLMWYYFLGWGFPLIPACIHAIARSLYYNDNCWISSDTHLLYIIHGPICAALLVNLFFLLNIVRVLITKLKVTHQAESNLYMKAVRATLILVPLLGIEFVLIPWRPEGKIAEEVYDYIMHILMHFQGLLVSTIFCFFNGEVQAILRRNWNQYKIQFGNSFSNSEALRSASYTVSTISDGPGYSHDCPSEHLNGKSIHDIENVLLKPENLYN
T1 sequence (O60894 27-148): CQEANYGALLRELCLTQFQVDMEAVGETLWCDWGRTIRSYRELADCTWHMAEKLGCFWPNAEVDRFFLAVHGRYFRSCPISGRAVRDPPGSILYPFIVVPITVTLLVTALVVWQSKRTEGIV
Method: CGRP Binding Assay. Tissue Culture. SK-N-MC cells were grown at 37° C. in 5% CO2 as a monolayer in medium consisting of MEM with Earle's salts and L-glutamine (Gibco) supplemented with 10% fetal bovine serum (Gibco). Cell Pellets. The cells were rinsed twice with phosphate-buffered saline (155 mM NaCl, 3.3 mM Na2HPO4, 1.1 mM KH2PO4, pH 7.4), and incubated for 5-10 min. at 4° C. in hypotonic lysis buffer consisting of 10 mM Tris (pH 7.4) and 5 mM EDTA. The cells were transferred from plates to polypropylene tubes (16×100 mm) and homogenized using a polytron. Homogenates were centrifuged at 32,000×g for 30 min. The pellets were resuspended in cold hypotonic lysis buffer with 0.1% mammalian protease inhibitor cocktail (Sigma) and assayed for protein concentration. The SK-N-MC homogenate was then aliquoted and stored at −80° C. until needed.
Radioligand Binding Assay. The compounds of invention were solubilized and carried through serial dilutions using 100% DMSO. Aliquots from the compound serial dilutions were further diluted 25 fold into assay buffer (50 mM Tris-Cl pH 7.5, 5 mM MgCl2, 0.005% Triton X-100) and transferred (volume 50 μl) into 96 well assay plates. [^125I]-CGRP (Amersham Biosciences) was diluted to 60 pM in assay buffer and a volume of […] was added to each well. SK-N-MC pellets were thawed, diluted in assay buffer with fresh 0.1% mammalian protease inhibitor cocktail (Sigma), and homogenized again. SK-N-MC homogenate (5 μg/well) was added in a volume of 100 μl. The assay plates were then incubated at room temperature for 2 h. Assays were stopped by addition of excess cold wash buffer (20 mM Tris-Cl pH 7.5, 0.1% BSA) immediately followed by filtration over glass fiber filters (Whatman GF/B) previously soaked in 0.5% PEI. Non-specific binding was defined with 1 μM beta-CGRP. Protein bound radioactivity was determined using a gamma or scintillation counter. The IC50 was defined as the concentration of a compound of invention required to displace 50% of radioligand binding.

CGRP receptor [2] = molecular target: T1, CGRP receptor; assay: Cyclic AMP functional antagonism assay in SK-N-MC cells; type: cell-based; parameters: SK-N-MC cells that endogenously express the human CGRP receptor; endogenous in cells; host or cells: SK-N-MC cells; details: Table 2; inhibition of 0.3 nM CGRP-induced cAMP in SK-N-MC cells; read-out: cAMP Function IC50
Method: Cyclic AMP Functional Antagonism Assay. Antagonism of the compounds of invention was determined by measuring the formation of cyclic AMP (adenosine 3′5′-cyclic monophosphate) in SK-N-MC cells that endogenously express the human CGRP receptor. CGRP receptor complex is coupled with Gs protein and CGRP binding to this complex leads to the cyclic AMP production via Gs-dependent activation of an adenylate cyclase (Juaneda C. et al., TiPS, 2000; 21:432-438). Consequently, CGRP receptor antagonists inhibit CGRP—induced cyclic AMP formation in SK-N-MC cells (Doods H, et al., Br J Pharmacol, 2000; 129(3):420-423). For cyclic AMP measurements SK—N-MC cells were incubated with 0.3 nM CGRP alone or in the presence of various concentrations of the compounds of invention for 30 min at room temperature. Compounds of invention were pre-incubated with SK—N-MC cells for 15 min before the addition of CGRP to allow receptor occupancy (Edvinsson et al., Eur J Pharmacol, 2001, 415:39-44). Cyclic AMP was extracted using the lysis reagent and its concentration was determined by radioimmunoassay using RPA559 cAMP SPA Direct Screening Assay Kit (Amersham Pharmacia Biotech). IC50 values were calculated using Excel fit.

Row | pIC50 (CGRP receptor [1]; Table 2) | pIC50 (CGRP receptor [2]) | pIC50 (CGRP receptor [1]; Table 1) | SMILES
1 | 8.00 to 11.00 | 8.00 to 11.00 |  | O=C(N[C@@H]1Cc2cc(Cl)c3[nH]ncc3c2CN(Cc2ccccc2)C1=O)N1CCC(N2Cc3ccccc3NC2=O)CC1
2 | 8.00 to 11.00 | 8.00 to 11.00 |  | CC(C)(C)CN1Cc2c(cc(Cl)c3[nH]ncc23)C[C@@H](NC(=O)N2CCC(N3Cc4ccccc4NC3=O)CC2)C1=O
3 | 8.00 to 11.00 | 8.00 to 11.00 |  | CC(C)(C)CN1Cc2c(cc(Cl)c3[nH]ncc23)C[C@@H](CC(=O)N2CCC(N3Cc4ccccc4NC3=O)CC2)C1=O
4 | 8.00 to 11.00 | 8.00 to 11.00 |  | O=C(NC1Cc2ccc3[nH]ncc3c2CN(CCc2ccncc2)C1=O)N1CCC(N2Cc3ccccc3NC2=O)CC1 (stereo not shown)
5 | 8.00 to 11.00 | 8.00 to 11.00 |  | O=C(C[C@@H]1Cc2cc(Cl)c3[nH]ncc3c2CN(Cc2ccncc2)C1=O)N1CCC(N2Cc3ccccc3NC2=O)CC1
6 | 8.00 to 11.00 | 8.00 to 11.00 |  | O=C(C[C@@H]1Cc2cc(Cl)c3[nH]ncc3c2CN(Cc2ccncc2)C1=O)N1CCC(N2Cc3cccc(F)c3NC2=O)CC1
7 | 8.00 to 11.00 | 8.00 to 11.00 |  | O=C(C[C@@H]1Cc2cc(Cl)c3[nH]ncc3c2CN(Cc2ccncc2)C1=O)N1CCC(n2cc(-c3ccccc3)[nH]c2=O)CC1
8 | 8.00 to 11.00 | 8.00 to 11.00 |  | O=C(C[C@@H]1Cc2cc(Cl)c3[nH]ncc3c2CN(Cc2ncc[nH]2)C1=O)N1CCC(N2Cc3ccccc3NC2=O)CC1
9 | 8.00 to 11.00 |  |  | Cc1cc2c(c3cn[nH]c13)CN(CC(C)(C)C)C(=O)[C@H](CC(=O)N1CCC(c3cc4ccccc4[nH]c3=O)CC1)C2
10 | 8.00 to 11.00 |  |  | O=C(C[C@@H]1Cc2cc(Br)c3[nH]ncc3c2CN(CC2CC2)C1=O)N1CCC(c2cc3ccccc3[nH]c2=O)CC1
11 | 8.00 to 11.00 |  |  | COCCN1Cc2c(cc(Br)c3[nH]ncc23)C[C@@H](CC(=O)N2CCC(c3cc4ccccc4[nH]c3=O)CC2)C1=O
12 | 7.00 to 8.00 |  |  | CC(C)(C)CN1Cc2c(cc(Cl)c3[nH]ncc23)C[C@@H](CC(=O)N2CCC(c3cc4cc(F)c(F)cc4[nH]c3=O)CC2)C1=O
13 | 8.00 to 11.00 |  |  | CC(C)(C)CN1Cc2c(cc(Cl)c3[nH]ncc23)C[C@@H](CC(=O)N2CCC(c3cc4ccc(Cl)cc4[nH]c3=O)CC2)C1=O
14 |  |  | 8.00 to 11.00 | CC(C)(C)CN1Cc2c(cc(Cl)c3[nH]ncc23)C[C@@H](CC(=O)N2CCC(c3cc4scc(Cl)c4[nH]c3=O)CC2)C1=O (mixture of isomers)

Continued, molecule first:

Row | SMILES | pIC50 (CGRP receptor [1]; Table 2) | pIC50 (CGRP receptor [2]) | pIC50 (CGRP receptor [1]; Table 1)
15 | CC(C)(C)CCN1Cc2c(ccc3[nH]ncc23)C[C@@H](NC(=O)N2CCC(N3Cc4ccccc4NC3=O)CC2)C1=O | 8.00 to 11.00 | 8.00 to 11.00 | 
16 | CC(C)(C)CN1Cc2c(ccc3[nH]ncc23)CC(NC(=O)N2CCC(N3Cc4ccccc4NC3=O)CC2)C1=O (stereo not shown) | 8.00 to 11.00 | 8.00 to 11.00 | 
17 | O=C(N[C@@H]1Cc2cc3cn[nH]c3cc2CN(Cc2ccccc2)C1=O)N1CCC(N2Cc3ccccc3NC2=O)CC1 | 8.00 to 11.00 |  | 
18 | CC(C)(C)CN1Cc2c(cc(Cl)c3[nH]ncc23)C[C@@H](CC(=O)N2CCC(N3Cc4cccc(F)c4NC3=O)CC2)C1=O | 8.00 to 11.00 | 8.00 to 11.00 | 
19 | O=C(C[C@@H]1Cc2cc(Cl)c3[nH]ncc3c2CN(Cc2ccncc2)C1=O)N1CCC(c2cc3ccccc3[nH]c2=O)CC1 | 8.00 to 11.00 | 8.00 to 11.00 | 
20 | Cc1cc2c(c3cn[nH]c13)CN(CC(F)(F)F)C(=O)[C@H](CC(=O)N1CCC(c3cc4ccccc4[nH]c3=O)CC1)C2 | 8.00 to 11.00 |  | 
21 | CCc1cc2c(c3cn[nH]c13)CN(CC(F)(F)F)C(=O)[C@H](CC(=O)N1CCC(c3cc4cccc(F)c4[nH]c3=O)CC1)C2 | 7.00 to 8.00 |  | 
22 | CC(C)(C)CN1Cc2c(cc(Cl)c3[nH]ncc23)C[C@@H](CC(=O)N2CCC(c3cc4ccc(F)cc4[nH]c3=O)CC2)C1=O | 8.00 to 11.00 |  | 
23 | CC(C)(C)CN1Cc2c(cc(Cl)c3[nH]ncc23)C[C@@H](CC(=O)N2CCC(c3cc4sc(Br)cc4[nH]c3=O)CC2)C1=O (mixture of isomers) |  |  | 8.00 to 11.00
24 | CC(C)(C)CN1Cc2c(ccc3[nH]ncc23)C[C@@H](CC(=O)N2CCC(N3Cc4ccccc4NC3=O)CC2)C1=O [drawing 84] |  | 8.00 to 11.00 | 
25 | CC(C)(C)CN1Cc2c(ccc3[nH]ncc23)C[C@@H](CC(=O)N2CCC(N3Cc4ccccc4NC3=O)CC2)C1=O [drawing 135] | 6.00 to 7.00 |  | 
